# Data as given in patent US20050261292A1, “Pharmaceutical composition containing N-sulfamoyl-N'-arylpiperazines for the treatment or inhibition of obesity and related conditions” (Solvay Pharmaceuticals GmbH, priority 2004, published 2005).
# Structures can show the parent of a compound that is named as a salt.
# Experiments:
# [1] = biological target: T1, human carbonic anhydrase isoenzyme II (hCA II) (Homo sapiens, UniProt P00918); assay: In vitro inhibition of human carbonic anhydrase isoenzyme II (hCA II), dansylamide fluorescence; type: biochemical; settings: hCA II from erythrocytes 10^-7 M, 60 min, single measurements, read-out: hCA II inhibiting effect in vitro, IC50
# T1 construct: human carbonic anhydrase isoenzyme II from erythrocytes (Sigma-Aldrich); purchased Sigma-Aldrich; host or cells: human erythrocytes (natural source)
# Experimental: 1. In vitro Inhibition of Human Carbonic Anhydrase Isoenzyme II (hCA II)
# The test compounds of Formula I in 96 well microplates were diluted with aqua bidest by using an automatic pipettor (CyBiWell®). From the different dilution plates, aliquots of 20 μl were transferred to the 96 well black assay plates with a pipetting station (Tecan Genesis®). In a second step, 148 μl of potassium phosphate buffer (20 mM, pH 7.4) was added, and as a third step, 20 μl of enzyme solution (1 μM human carbonic anhydrase isoenzyme II from erythrocytes (Sigma-Aldrich), dissolved in potassium phosphate buffer) incubated for 60 min at room temperature and the fluorescence signal (Tecan Ultra® fluorescence reader; excitation wavelength: 280 nm; emission wavelength: 465 nm) read at the end of the preincubation period (FLU-1). After the preincubation time, 20 μl of aqueous dansylamide solution (1 mM dansylamide (Sigma-Aldrich), dissolved in hydrochloric acid) were added and the fluorescence signal read every 10 min for a period of 60 min at 37° C. For calculation, the fluorescence data of the time point 60 min (FLU-2) were used. The total volume of assay mixture amounted to 208 μl. The final concentration of carbonic anhydrase II was 10^−7 M/L, of dansylamide 2.25×10^−6 and of compounds from 10^−8 M/L up to 10^−5 M/L. Final concentration of DMSO as compound solvent was […]. Each microplate also contained blanks without compound and enzyme, controls without compound and ethoxzolamide (final concentration 5×10^−8 M/L). All data reflect single measurements. Data were expressed as % inhibition after calculation by the formula: % inhibition=100((1−(FLU−2cpd−FLU−2blank−FLU−1cpd+FLU−1blank)/(FLU−2control−FLU−2blank−FLU−1control−FLU−1blank))
# The % inhibition data for each compound and the respective final concentrations were used for IC50 calculations by using the Prism 4 software. Concentration action figures were calculated by applying the Prism algorithm for nonlinear regression (curve-fit): sigmoidal dose response with variable slope and the constraints: top: 100 and bottom 0.
# [2] = test system: dietary obese female Wistar rats; assay: Chronic influence on food and water intake and body weight gain in vivo (carcass composition, plasma parameters); set-up: species or system rat; settings: 28 days, mean ± SEM; for Plasma glucose / Plasma insulin / Plasma leptin: plasma day 29
# Experimental: 4. Chronic Influence on Food and Water Intake and Body Weight Gain in vivo
# Female Wistar rats (weight range 250-300 g; Charles River, Margate, Kent) were housed in pairs in polypropylene cages with solid floors and sawdust bedding at a temperature of 21±4° C. and 55±20% humidity. Animals were maintained on a reverse phase light-dark cycle (lights off for 8 hours from 10.00-18.00 h) during which time the room was illuminated by red light. Animals had free access to powdered high fat diet (VRF1 plus 20% lard), ground chocolate, ground peanuts and tap water at all times. The three different diets were contained in separate glass feeding jars with aluminium lids (Solmedia Laboratory Suppliers, Romford, Essex). […] Animals were housed in pairs for twelve weeks. At least two weeks before the start of the baseline readings, animals were housed individually in polypropylene cages with wire grid floors to enable the food intake of each rat to be recorded. Polypropylene trays with cage pads were placed beneath each cage to detect any food spillage.
# At the start of the study, animals were weighed (to the nearest 0.1 g using an electronic top-pan balance) and allocated into 6 weight-matched treatment groups, each containing 10 animals. Following a 7 day baseline run-in period, during which time all animals were dosed orally once a day with vehicle (1% Tylose MH50, 0.1% poloxamer 188), rats were given vehicle or test compound of Formula I for 28 days as described in Table 4 below: […]
# The test substance of example 2 was suspended in 1% Tylose MH50, 0.1% poloxamer 188 and administered by oral gavage (2 ml/kg). All dosing occurred at the onset of the 8 hours dark period (spanning the period immediately before and after lights out). The second treatments were given 4 hours after the first. Rats, feeding jars and water bottles were weighed (to the nearest 0.1 g) every day at the time of administration of vehicle or test substance. At each reading, the tray below each cage was examined for spilt food, which was returned to the appropriate jar before weighing. However, spillage of food from the feeding jars was negligible. Variations in body weight and energy levels of the different types of food were accounted for by expressing the food intake results in terms of kJ/kg rat weight. Water intake results were expressed in g/kg.
# Animals were killed at the end of the study (by CO2 to minimize any fluid loss) on day 29 and blood samples (5 ml whole blood/animal) were collected by cardiac puncture. Plasma was separated by centrifugation and stored at −75° C. until analysis. Following blood collection carcasses were weighed, frozen and stored at −75° C. for body composition analysis. Body fat, protein, water and ash levels of the carcasses were determined using standard chemical analysis techniques. Only fat, protein, water and ash content were measured as other components (mainly carbohydrate) form less than 2% of total body composition.
# Carcasses were individually milled at the temperature of liquid nitrogen, mixed and two representative samples taken. Carcass water was determined by freeze-drying the samples to constant weight. Carcass fat was determined on the freeze-dried samples using a modified Soxhlet extraction protocol (petroleum ether at 40-60° C.) with a Foss Soxtec® HT2 system (Foss UK Ltd, Wheldrake, UK) according to the manufacturers recommended protocol. Carcass protein was determined using a micro-Kjeldahl procedure on the freeze-dried samples using a Foss 2012® digestion block and Foss 2200® distilling unit (Foss UK Ltd). Residual carcass ash was determined by firing the freeze-dried samples at high temperatures using a muffle ashing furnace. Repeat determinations of the chemical analysis parameters were performed as necessary (e.g. if the duplicate samples differed by more than 1%).
# [3] = 30 mg/kg po twice daily (0 h, 4 h)
# [4] = 50 mg/kg po twice daily (0 h, 4 h)
structure (smiles),measurement,setting,value
"NS(=O)(=O)N1CCN(c2ccccc2)CC1 [Example 2, N-Sulfamoyl-N′-phenylpiperazine hydrochloride]",IC50,[1],5.1 µM
same,"Carcass ash, mean percent final body weight",[2]; [3],3.24 ± 0.12%
same,"Carcass ash, mean weight per rat",[2]; [3],12.13 ± 0.48 g
same,"Carcass fat, mean percent final body weight",[2]; [3],22.8 ± 1.0 %
same,"Carcass fat, mean weight per rat",[2]; [3],87.9 ± 3.8 g
same,"Carcass protein, mean percent final body weight",[2]; [3],17.4 ± 0.3*° %
same,"Carcass protein, mean weight per rat",[2]; [3],64.8 ± 1.2 g
same,"Carcass water, mean percent final body weight",[2]; [3],55.2 ± 0.8 %
same,"Carcass water, mean weight per rat",[2]; [3],205.8 ± 3.1 g
same,"Carcass weight, mean per rat",[2]; [3],375.4 ± 4.8 g
same,Plasma glucose,[2]; 30 mg/kg po twice daily,8.6 ± 0.5 mM
same,Plasma insulin,[2]; 30 mg/kg po twice daily,1.53 ± 0.33 ng/mL
same,Plasma leptin,[2]; 30 mg/kg po twice daily,68.8 ± 9.4 ng/mL
same,"Carcass ash, mean percent final body weight",[2]; [4],3.14 ± 0.1%
same,"Carcass ash, mean weight per rat",[2]; [4],11.38 ± 0.29 g
same,"Carcass fat, mean percent final body weight",[2]; [4],22.3 ± 1.8 %
same,"Carcass fat, mean weight per rat",[2]; [4],83.6 ± 6.9 g
same,"Carcass protein, mean percent final body weight",[2]; [4],17.3 ± 0.4*° %
same,"Carcass protein, mean weight per rat",[2]; [4],62.8 ± 1.3 g
same,"Carcass water, mean percent final body weight",[2]; [4],55.7 ± 1.2 %
same,"Carcass water, mean weight per rat",[2]; [4],202.2 ± 3.6 g
same,"Carcass weight, mean per rat",[2]; [4],365.6 ± 3.8 g
same,Plasma glucose,[2]; 50 mg/kg po twice daily,7.9 ± 0.5 mM
same,Plasma insulin,[2]; 50 mg/kg po twice daily,1.40 ± 0.41 ng/mL
same,Plasma leptin,[2]; 50 mg/kg po twice daily,58.8 ± 11.6 ng/mL
